Test results taken from patent publication US20200046658A1, “PHARMACEUTICAL COMPOSITION FOR INDUCING EXERCISE MIMETIC EFFECT” (CELLVERTICS CO., LTD., priority 2015, published 2020).
Structures can show the parent of a compound that is named as a salt. Marks after values point to notes of the source that are not given here.

How the values were obtained:
[1] = Body weight, cardiac weight and abdominal fat of SHR; assay type: in vivo, rat; settings: 8 weeks old, drug in drinking water for 4 weeks (midodrine 0.2 mg/kg/day, atenolol 1 mg/kg/day), mean±SD
Method: (§1) The animals of the group I were anesthetized at 4 weeks of age while the rats of other groups were anesthetized at 8 weeks of age after being treated for 4 weeks. […] The recovered organs were kept in a refrigerator at −80° C. or in 10% formalin for fixation.
Body weight and abdominal fat were measured and compared for the midodrine-administered rat (II), atenolol-administered rat (III) and 8-week-old unadministered hypertension control group rat (IV).

[2] = tested on: spontaneously hypertensive rat (SHR); assay: ATP level in tissues of SHR by ELISA; assay type: in vivo; settings: versus control group SHRs, FIG. 5
Method: 0.02 g of liver tissue was homogenized in 500 μL of PBS. The homogenate was centrifuged at 1500×g (or 5000 rpm) for 15 minutes and the supernatant was subjected to measurement. After pouring 100 μL of a reference material or sample to an adequate well of an antibody-precoated microtiter plate, 10 μL of the residual solution was added to the sample. After adding 50 μL of a conjugate to each well and mixing, the plate was covered with a lid and incubated at 37° C. for 1 hour. After adding 50 μL of substrate A or B to each well, incubation was conducted at 37° C. for 15 minutes. After adding a stop solution to each well, optical density was measured at 450 nm using a microplate reader.
The level of ATP in the heart, skeletal muscle and liver was measured by ELISA for the 4-week-old basal rat (I), midodrine-administered rat (II), atenolol-administered rat (III) and 8-week-old unadministered control group rat (IV).

[3] = tested on: spontaneously hypertensive rat (SHR); assay: Echocardiographic examination of spontaneously hypertensive rats; assay type: in vivo
Source text: Spontaneously hypertensive rat (SHR) is an animal model in which hereditary hypertension is expressed. It is known that the hypertension which is the most similar to human primary hypertension is expressed. In SHR, blood pressure begins to increase around 4-6 weeks of age and hypertension is developed seriously at 8-12 weeks. SHR is widely used in studies as an animal mode of primary hypertension, especially hypertension with cardiac lesions, because it is frequently accompanied damage to the hypertensive target organs, such as cardiac hypertrophy, heart failure, renal disorder, etc.
3-week-old spontaneously hypertensive rats (SHRs) were kept under a standardized condition (21° C., 41-62% humidity) with periodic light/dark (10/14 hour) cycles and were freely allowed to access water and laboratory feed. All the animal experiments were approved by the Korea University Institutional Animal Care and Use Committee (KUIACUC-2012-100) and were in accordance with the Guideline for the Care and Use of Laboratory Animals.
After anesthetization by intramuscular injection of Zoletil (8 mg/kg) and xylazine (2 mg/kg), the rats were laid on their left sides and M-mode echo images were obtained. The examination was conducted using Vivid 7 (GE Medical Systems, Milwaukee, Wis., USA) equipped with a 12-MHz transducer. After acquiring optimized 2-dimensional short-axis images for the left ventricle at the papillary muscle level, M-mode tracing and echocardiographic images were recorded at a speed of 100 mm/s.

[4] = tested on: aorta and cardiac muscle tissue; assay: mRNA expression of AT1R, eNOS, SOD, gp91-phox, TNFα in aorta and cardiac muscle of SHR; assay type: in vivo, rat
Method: as §1
Full-length RNA was extracted using the TriZol reagent according to the manufacturer's instructions. Complementary DNA was synthesized from the full-length RNA using the Power cDNA Synthesis kit and polymerase chain reaction was conducted for angiotensin II type I receptor (AT1R), endothelial nitric oxide synthase (eNOS), superoxide dismutase (SOD), gp91-phox (NADPH), tumor necrosis factor-alpha (TNF-α) and GAPDH using the PCR Premix kit.
The mRNA expression level of the genes related with vasoconstriction, nitric oxide production, oxidative stress and inflammation in the aorta and cardiac muscle tissue was investigated by […] for the 4-week-old basal rat (I), midodrine-administered rat (II), atenolol-administered rat (III) and 8-week-old unadministered control group rat (IV).

[5] = tested on: spontaneously hypertensive rat (SHR); assay: Serum inflammatory markers, reactive oxygen species and adiponectin in SHR; assay type: in vivo; settings: 8 weeks old, drug for 4 weeks, mean±SD; for ROS: blood
Method: as §1
The concentration of total cholesterol, HDL cholesterol, LDL cholesterol and triglyceride was measured by enzymatic colorimetry (Roche Diagnostics GmbH; Mannheim, Germany). Also, serum assays for inflammatory markers were conducted using a […] cytokine Milliplex panel (Millipore Corporation, Billerica, Mass., USA) as recommended for cytokines (interleukin (IL)-1α, IL-1β, IL-6, IL-4, IL-10 and TNF-α). Acquisition was performed on a Luminex 100 platform and data analysis was carried out using the Multiplex analyzer. Reactive oxygen species and adiponectin were measured using the ELISA kit (MBS815494, Mybiosource). The measured blood adiponectin level was calibrated for the visceral fat weight (g).

[6] = tested on: mouse skeletal muscle cells (C2C12); assay: Western blot of p-AMPK, PPAR-δ and PGC-1α in differentiating C2C12 cells; assay type: cell-based; settings: versus untreated control
Method: C2C12 cells (mouse skeletal cell line) were seeded onto a 6-well plate in a CO2 incubator at 37° C. and cultured in a DMEM medium containing 10% FBS and 1% antibiotics to about 80% confluency. After replacing the medium with one containing 1% FBS, differentiation was conducted for 3 days. Then, after replacing the medium with one containing 1% FBS and then treating with a drug, experiment was conducted 24 hours later.
The protein content of the extract was measured by the Bradford's method. The extracted proteins (20-30 μg) were loaded on a 10% SDS-PAGE gel. Western blot assay was conducted using primary antibodies for AMPKα, phosphorylated AMPKα, PPARδ and PGC-1α. Images were obtained manually using the Kodak GBX developer and a fixative reagent.
Specifically, after treating differentiating C2C12 cells with the compounds at different concentrations (10 μM, 30 μM, 50 μM), the expression of activated (phosphorylated) AMPK (p-AMPK), PPAR-δ and PGC-1α was investigated by western blot.

[7] = SHR, 8 weeks old, drug in drinking water for 4 weeks (midodrine 0.2 mg/kg/day, atenolol 1 mg/kg/day), mean±SD
[8] = C2C12, over 10 μM, 30 μM, 50 μM

SMILES: CC(C)NCC(O)COc1ccc(CC(N)=O)cc1 (stereo not drawn) [Atenolol]
- Body weight [1]: 296.46 ± 16.73^b g
- Cardiac weight [1]: 1.47 ± 0.15^a g
- Body weight ([1]; listed as atenolol): highest
- ATP level in heart tissue [2]: higher
- left ventricular performance ([3]; 8-week-old SHR, versus unadministered control (group IV)): higher
- Diastolic left ventricular diaphragm [3, 7]: 1.50 ± 0.13^a mm
- Diastolic left ventricular inner size [3, 7]: 6.33 ± 0.35^a mm
- Diastolic left ventricular wall [3, 7]: 1.67 ± 0.16 mm
- Left ventricular ejection fraction [3, 7]: 82.00 ± 5.31^a %
- Left ventricular fractional shortening [3, 7]: 45.70 ± 5.82^a %
- Left ventricular mass according to ASE [3, 7]: 1.10 ± 0.07^a g
- Systolic left ventricular inner size [3, 7]: 3.43 ± 0.28^a mm
- TNFα expression in the aorta ([4]; among groups I-IV, FIG. 3A): moderate
- expression of angiotensin II AT1R mRNA in the cardiac muscle ([4]; among groups I-IV, FIG. 3B): moderate
- expression of angiotensin II AT1R mRNA in the aorta ([4]; versus control groups I and IV, FIG. 3A): lower
- Adiponectin ([5]; blood level calibrated for the visceral fat weight (g)): 6136.5 ± 574.7^bc ng/ml/g
- ROS [5]: 223.1 ± 45.4^a ng/ml
- ROS ([5]; listed as atenolol): lower
- IL-1α ([5]; serum): 5.51 ± 2.64^c μg/ml
- IL-1β ([5]; serum): 2.02 ± 1.53^a μg/ml
- IL-4 ([5]; serum): 2.94 ± 0.90^b μg/ml
- IL-6 ([5]; serum): 5.62 ± 1.42^a μg/ml
- IL-10 ([5]; serum): 15.33 ± 2.79^b μg/ml
- TNF-α ([5]; serum): 8.35 ± 1.36^b μg/ml
- IL-1α ([5]; serum, listed as atenolol): significantly increased
- IL-4 ([5]; serum, listed as atenolol): slightly higher
- IL-10 ([5]; serum, listed as atenolol): slightly higher
- TNF-α ([5]; serum, listed as atenolol): significantly increased

SMILES: COc1ccc(OC)c(C(O)CNC(=O)C(N)Cc2ccccc2)c1 (stereo not drawn) [Compound 5, 2-amino-N-(2-(2,5-dimethoxyphenyl)-2-hydroxyethyl)-3-phenylpropanamide]
- expression of PPAR-δ ([6]; C2C12, 30 μM): significantly increased
- expression of p-AMPK ([6]; C2C12, 30 μM): significantly increased

SMILES: COc1ccc(OC)c(C(O)CNC(=O)C(C)N)c1 (stereo not drawn) [Compound 7, 2-amino-N-(2-(2,5-dimethoxyphenyl)-2-hydroxyethyl)propanamide]
- expression of p-AMPK ([6]; C2C12, 10 μM): significant increase
- expression of PPAR-δ ([6]; C2C12, 30 μM): significant increase
- expression of p-AMPK ([6]; C2C12, 50 μM): significant increase
- expression of PPAR-δ [6, 8]: concentration-dependent increase
- expression of p-AMPK [6, 8]: concentration-dependent increase

SMILES: COc1cc(OC)cc(C(O)CNC(=O)CN)c1 (stereo not drawn) [Compound 8, 2-amino-N-(2-(3,5-dimethoxyphenyl)-2-hydroxyethyl)acetamide hydrochloride]
- expression of PGC-1α ([6]; C2C12, 50 μM): significantly increased
- expression of p-AMPK ([6]; C2C12, 50 μM): significantly increased
- expression of PGC-1α [6, 8]: overall increase
- expression of PPAR-δ [6, 8]: overall increase
- expression of p-AMPK [6, 8]: overall increase

SMILES: CCc1ccc(OC)c(C(O)CNC(=O)CN)c1 (stereo not drawn) [Compound 9, 2-amino-N-(2-(5-ethyl-2-methoxyphenyl)-2-hydroxyethyl)acetamide hydrochloride]
- expression of PGC-1α ([6]; C2C12, 30 μM): significantly increased
- expression of p-AMPK ([6]; C2C12, 30 μM): significantly increased
- expression of PGC-1α ([6]; C2C12, 50 μM): significantly increased
- expression of p-AMPK ([6]; C2C12, 50 μM): significantly increased
- expression of PGC-1α [6, 8]: overall increase
- expression of PPAR-δ [6, 8]: overall increase
- expression of p-AMPK [6, 8]: overall increase

SMILES: NCC(=O)NCC(O)c1ccccc1 (stereo not drawn) [Compound 10, 2-amino-N-(2-hydroxy-2-phenylethyl)acetamide hydrochloride]
- expression of PPAR-δ ([6]; C2C12, 10 μM): significantly increased
- expression of p-AMPK ([6]; C2C12, 30 μM): significantly increased
- expression of PPAR-δ ([6]; C2C12, 50 μM): significantly increased
- expression of p-AMPK ([6]; C2C12, 50 μM): significantly increased
